Assays:
[1] = target: SRSF protein kinase 2 (Homo sapiens) (UniProt P78362); test: Inhibition of SRPK2 in human PC3 cell lysates at 10 uM using desthiobiotin-tagged ATP probe AX9989 followed by trypsinization by LC/MS analysis; conditions: PC-3
[2] = target: Casein kinase I delta/epsilon (Homo sapiens) (UniProt P48730+P49674); test: Inhibition of CK1delta/CK1epsilon in human PC3 cell lysates at 10 uM using desthiobiotin-tagged ATP probe AX9989 followed by trypsinization by LC/MS analysis; format: protein-complex assay; conditions: PC-3
Sequence of Casein kinase I delta/epsilon (Homo sapiens) (P48730 whole entry, looked up): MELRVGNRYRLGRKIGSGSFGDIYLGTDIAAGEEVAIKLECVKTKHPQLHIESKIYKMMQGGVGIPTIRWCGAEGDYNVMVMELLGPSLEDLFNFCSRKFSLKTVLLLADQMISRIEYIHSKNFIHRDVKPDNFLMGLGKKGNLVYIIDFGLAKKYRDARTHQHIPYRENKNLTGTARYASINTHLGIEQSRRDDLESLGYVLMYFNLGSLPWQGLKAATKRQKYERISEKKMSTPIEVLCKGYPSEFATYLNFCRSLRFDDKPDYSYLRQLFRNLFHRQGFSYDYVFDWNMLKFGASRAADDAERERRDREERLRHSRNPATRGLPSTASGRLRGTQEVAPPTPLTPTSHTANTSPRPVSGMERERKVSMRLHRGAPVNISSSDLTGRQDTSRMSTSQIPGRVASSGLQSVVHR
Sequence of Casein kinase I delta/epsilon (Homo sapiens) (P49674 whole entry, looked up): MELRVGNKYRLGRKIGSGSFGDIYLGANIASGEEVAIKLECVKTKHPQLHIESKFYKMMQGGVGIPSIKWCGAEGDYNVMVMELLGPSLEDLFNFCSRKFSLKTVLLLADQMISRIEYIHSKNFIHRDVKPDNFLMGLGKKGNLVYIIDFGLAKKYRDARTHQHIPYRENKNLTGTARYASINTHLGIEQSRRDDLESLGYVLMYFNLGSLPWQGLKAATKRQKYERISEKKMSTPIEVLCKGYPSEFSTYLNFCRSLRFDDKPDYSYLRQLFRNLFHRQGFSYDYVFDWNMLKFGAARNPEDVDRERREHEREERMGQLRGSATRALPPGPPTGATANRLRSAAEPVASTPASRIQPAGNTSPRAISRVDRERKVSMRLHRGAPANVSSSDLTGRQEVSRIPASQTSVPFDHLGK

[3] = target: Dual specificity protein kinase CLK2 (Homo sapiens) (UniProt P49760); test: Inhibition of CLK2 in human PC3 cell lysates at 10 uM using desthiobiotin-tagged ATP probe AX9989 followed by trypsinization by LC/MS analysis; conditions: PC-3
Sequence of Dual specificity protein kinase CLK2 (Homo sapiens) (P49760 whole entry, looked up): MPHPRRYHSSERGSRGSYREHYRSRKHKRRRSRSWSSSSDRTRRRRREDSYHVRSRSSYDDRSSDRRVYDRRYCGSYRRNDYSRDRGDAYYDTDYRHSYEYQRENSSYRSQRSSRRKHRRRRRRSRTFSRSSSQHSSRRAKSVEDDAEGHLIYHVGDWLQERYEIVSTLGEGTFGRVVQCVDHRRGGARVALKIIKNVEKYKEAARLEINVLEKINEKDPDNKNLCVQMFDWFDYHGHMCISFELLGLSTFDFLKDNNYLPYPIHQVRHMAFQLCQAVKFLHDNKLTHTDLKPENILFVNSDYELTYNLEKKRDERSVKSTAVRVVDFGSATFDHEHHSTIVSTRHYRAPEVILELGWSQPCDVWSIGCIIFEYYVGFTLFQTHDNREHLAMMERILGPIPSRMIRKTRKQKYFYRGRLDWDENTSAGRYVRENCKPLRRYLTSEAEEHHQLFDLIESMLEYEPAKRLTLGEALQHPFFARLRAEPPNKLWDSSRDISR

[4] = target: Interleukin-1 receptor-associated kinase 1 (Homo sapiens) (UniProt P51617); test: Inhibition of IRAK1 in human PC3 cell lysates at 10 uM using desthiobiotin-tagged ATP probe AX9989 followed by trypsinization by LC/MS analysis; conditions: PC-3
Sequence of Interleukin-1 receptor-associated kinase 1 (Homo sapiens) (P51617 whole entry, looked up): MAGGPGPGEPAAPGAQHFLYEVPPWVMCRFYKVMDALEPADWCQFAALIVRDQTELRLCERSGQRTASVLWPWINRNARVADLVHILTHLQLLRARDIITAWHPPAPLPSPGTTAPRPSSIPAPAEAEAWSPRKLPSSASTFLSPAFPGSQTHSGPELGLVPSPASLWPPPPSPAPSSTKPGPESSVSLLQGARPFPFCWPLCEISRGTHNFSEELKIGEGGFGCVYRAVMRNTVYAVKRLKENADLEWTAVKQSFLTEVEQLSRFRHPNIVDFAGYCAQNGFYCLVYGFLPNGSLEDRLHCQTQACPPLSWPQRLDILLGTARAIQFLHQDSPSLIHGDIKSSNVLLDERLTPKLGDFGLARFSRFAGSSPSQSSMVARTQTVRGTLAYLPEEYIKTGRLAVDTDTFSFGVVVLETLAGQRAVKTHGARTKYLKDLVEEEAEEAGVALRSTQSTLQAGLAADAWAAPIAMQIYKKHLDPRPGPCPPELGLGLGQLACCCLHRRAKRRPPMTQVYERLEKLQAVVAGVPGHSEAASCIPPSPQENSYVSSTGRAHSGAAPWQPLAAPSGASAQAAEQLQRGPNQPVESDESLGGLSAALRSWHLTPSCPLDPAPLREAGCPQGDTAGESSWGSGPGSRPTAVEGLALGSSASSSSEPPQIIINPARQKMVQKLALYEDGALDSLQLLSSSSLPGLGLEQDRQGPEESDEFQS

[5] = target: Serine/threonine-protein kinase Nek7 (Homo sapiens) (UniProt Q8TDX7); test: Inhibition of NEK7 in human PC3 cell lysates at 10 uM using desthiobiotin-tagged ATP probe AX9989 followed by trypsinization by LC/MS analysis; conditions: PC-3
Sequence of Serine/threonine-protein kinase Nek7 (Homo sapiens) (Q8TDX7 whole entry, looked up): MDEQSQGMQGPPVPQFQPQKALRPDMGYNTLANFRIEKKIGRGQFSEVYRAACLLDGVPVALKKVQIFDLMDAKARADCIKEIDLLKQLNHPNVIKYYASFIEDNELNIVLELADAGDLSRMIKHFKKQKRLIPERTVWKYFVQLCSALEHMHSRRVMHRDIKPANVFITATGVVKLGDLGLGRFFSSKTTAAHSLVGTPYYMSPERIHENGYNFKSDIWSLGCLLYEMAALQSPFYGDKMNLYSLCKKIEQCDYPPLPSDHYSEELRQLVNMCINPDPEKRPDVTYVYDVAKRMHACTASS

[6] = target: T1, Serine/threonine-protein kinase TAO3 (Homo sapiens) (UniProt Q9H2K8); test: Inhibition of TAO3 in human PC3 cell lysates at 10 uM using desthiobiotin-tagged ATP probe AX9989 followed by trypsinization by LC/MS analysis; conditions: PC-3
T1 sequence (whole entry): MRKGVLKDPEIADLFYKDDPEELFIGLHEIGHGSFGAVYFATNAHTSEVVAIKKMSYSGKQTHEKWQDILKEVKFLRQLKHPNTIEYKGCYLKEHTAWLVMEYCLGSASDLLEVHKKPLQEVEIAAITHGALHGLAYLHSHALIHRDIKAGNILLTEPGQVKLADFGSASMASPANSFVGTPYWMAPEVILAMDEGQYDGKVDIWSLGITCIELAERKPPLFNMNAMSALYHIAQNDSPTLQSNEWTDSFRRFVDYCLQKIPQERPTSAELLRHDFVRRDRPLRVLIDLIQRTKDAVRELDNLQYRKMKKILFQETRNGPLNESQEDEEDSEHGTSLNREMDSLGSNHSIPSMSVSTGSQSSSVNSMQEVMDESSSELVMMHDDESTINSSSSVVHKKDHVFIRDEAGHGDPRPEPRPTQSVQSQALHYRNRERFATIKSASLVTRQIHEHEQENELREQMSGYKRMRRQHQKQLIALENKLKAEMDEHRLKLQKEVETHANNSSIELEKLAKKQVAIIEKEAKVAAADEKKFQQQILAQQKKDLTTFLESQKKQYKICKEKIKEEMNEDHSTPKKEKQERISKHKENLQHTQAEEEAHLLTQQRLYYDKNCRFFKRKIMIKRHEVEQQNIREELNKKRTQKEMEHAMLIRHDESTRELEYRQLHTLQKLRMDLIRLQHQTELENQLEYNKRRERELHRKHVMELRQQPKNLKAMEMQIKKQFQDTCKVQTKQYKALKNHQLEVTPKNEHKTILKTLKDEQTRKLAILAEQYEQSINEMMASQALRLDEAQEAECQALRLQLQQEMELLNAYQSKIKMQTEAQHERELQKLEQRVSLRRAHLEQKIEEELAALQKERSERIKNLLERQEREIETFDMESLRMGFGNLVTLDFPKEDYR

[7] = target: Phosphatidylinositol 4,5-bisphosphate 3-kinase catalytic subunit beta isoform (Homo sapiens) (UniProt P42338); test: Inhibition of PIK3CB in human PC3 cell lysates at 10 uM using desthiobiotin-tagged ATP probe AX9989 followed by trypsinization by LC/MS analysis; conditions: PC-3
Sequence of Phosphatidylinositol 4,5-bisphosphate 3-kinase catalytic subunit beta isoform (Homo sapiens) (P42338 whole entry, looked up, canonical isoform): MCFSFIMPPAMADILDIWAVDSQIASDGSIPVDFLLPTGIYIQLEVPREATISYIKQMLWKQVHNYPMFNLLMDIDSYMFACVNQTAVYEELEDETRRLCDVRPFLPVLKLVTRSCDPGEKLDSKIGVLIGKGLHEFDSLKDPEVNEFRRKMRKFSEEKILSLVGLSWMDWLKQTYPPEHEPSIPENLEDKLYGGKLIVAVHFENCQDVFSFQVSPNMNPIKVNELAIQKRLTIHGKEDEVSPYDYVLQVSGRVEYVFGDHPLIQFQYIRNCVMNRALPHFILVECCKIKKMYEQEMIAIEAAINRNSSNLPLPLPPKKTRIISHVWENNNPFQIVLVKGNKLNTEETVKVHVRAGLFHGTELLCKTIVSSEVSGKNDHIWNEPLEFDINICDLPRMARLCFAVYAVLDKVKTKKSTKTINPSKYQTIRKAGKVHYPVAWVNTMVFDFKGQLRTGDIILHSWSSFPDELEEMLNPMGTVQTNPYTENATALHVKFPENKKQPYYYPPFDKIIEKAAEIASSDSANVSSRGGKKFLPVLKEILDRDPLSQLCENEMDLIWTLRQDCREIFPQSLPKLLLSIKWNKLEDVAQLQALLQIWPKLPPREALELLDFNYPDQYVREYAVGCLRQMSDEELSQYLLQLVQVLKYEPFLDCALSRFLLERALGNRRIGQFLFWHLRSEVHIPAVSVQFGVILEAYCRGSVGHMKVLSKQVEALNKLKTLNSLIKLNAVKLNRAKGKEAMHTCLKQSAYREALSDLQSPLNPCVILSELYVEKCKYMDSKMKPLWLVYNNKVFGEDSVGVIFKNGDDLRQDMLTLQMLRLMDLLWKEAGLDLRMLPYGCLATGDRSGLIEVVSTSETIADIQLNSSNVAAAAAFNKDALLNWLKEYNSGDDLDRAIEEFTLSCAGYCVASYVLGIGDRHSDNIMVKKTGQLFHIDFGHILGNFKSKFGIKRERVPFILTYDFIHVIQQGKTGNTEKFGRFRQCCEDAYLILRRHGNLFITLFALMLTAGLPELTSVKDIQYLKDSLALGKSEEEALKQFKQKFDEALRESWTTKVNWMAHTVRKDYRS

[8] = target: T2, SNF-related serine/threonine-protein kinase (Homo sapiens) (UniProt Q9NRH2); test: Inhibition of SNRK in human PC3 cell lysates at 10 uM using desthiobiotin-tagged ATP probe AX9989 followed by trypsinization by LC/MS analysis; conditions: PC-3
T2 sequence (whole entry): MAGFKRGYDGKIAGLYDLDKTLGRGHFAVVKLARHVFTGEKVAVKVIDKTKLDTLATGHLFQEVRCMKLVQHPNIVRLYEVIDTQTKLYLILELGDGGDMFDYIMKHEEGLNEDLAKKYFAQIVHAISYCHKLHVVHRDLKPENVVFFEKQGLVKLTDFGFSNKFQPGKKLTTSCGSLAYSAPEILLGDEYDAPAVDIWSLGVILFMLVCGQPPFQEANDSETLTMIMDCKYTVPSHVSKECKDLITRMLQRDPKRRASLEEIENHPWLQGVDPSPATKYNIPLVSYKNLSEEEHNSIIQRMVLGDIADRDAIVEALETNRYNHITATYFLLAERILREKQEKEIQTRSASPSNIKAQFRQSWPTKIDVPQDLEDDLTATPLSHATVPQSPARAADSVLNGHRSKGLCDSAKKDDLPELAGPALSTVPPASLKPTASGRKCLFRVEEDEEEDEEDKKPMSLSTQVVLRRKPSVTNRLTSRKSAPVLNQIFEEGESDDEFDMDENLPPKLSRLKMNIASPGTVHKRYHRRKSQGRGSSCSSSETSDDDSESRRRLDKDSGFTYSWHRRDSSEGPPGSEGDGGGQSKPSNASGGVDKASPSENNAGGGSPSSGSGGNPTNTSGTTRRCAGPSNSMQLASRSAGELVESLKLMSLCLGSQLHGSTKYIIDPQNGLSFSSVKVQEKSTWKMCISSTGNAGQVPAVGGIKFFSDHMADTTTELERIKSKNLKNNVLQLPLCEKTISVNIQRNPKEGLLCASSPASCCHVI

[9] = target: T3, Phosphorylase b kinase gamma catalytic chain, liver/testis isoform (Homo sapiens) (UniProt P15735); test: Inhibition of PHKgamma2 in human PC3 cell lysates at 10 uM using desthiobiotin-tagged ATP probe AX9989 followed by trypsinization by LC/MS analysis; conditions: PC-3
T3 sequence (whole entry): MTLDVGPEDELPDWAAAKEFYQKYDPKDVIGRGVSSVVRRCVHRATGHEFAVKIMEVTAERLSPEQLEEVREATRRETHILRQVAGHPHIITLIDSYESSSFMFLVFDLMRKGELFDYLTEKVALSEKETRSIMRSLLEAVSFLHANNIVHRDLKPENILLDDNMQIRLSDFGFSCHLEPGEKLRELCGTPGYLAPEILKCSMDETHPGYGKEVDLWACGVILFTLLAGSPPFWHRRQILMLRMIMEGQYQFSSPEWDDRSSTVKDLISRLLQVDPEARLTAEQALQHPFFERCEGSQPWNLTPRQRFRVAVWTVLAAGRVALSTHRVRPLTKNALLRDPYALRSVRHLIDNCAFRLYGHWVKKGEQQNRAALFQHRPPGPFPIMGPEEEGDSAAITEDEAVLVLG

PC-3 = test: Inhibition of ZC1/HGK/ZC2/TNIK/ZC3/MINK in human PC3 cell lysates at 10 uM using desthiobiotin-tagged ATP probe AX9989 followed by trypsinization by LC/MS analysis; format: cell-free

Sequence of SRSF protein kinase 2 (Homo sapiens) (P78362 whole entry, looked up): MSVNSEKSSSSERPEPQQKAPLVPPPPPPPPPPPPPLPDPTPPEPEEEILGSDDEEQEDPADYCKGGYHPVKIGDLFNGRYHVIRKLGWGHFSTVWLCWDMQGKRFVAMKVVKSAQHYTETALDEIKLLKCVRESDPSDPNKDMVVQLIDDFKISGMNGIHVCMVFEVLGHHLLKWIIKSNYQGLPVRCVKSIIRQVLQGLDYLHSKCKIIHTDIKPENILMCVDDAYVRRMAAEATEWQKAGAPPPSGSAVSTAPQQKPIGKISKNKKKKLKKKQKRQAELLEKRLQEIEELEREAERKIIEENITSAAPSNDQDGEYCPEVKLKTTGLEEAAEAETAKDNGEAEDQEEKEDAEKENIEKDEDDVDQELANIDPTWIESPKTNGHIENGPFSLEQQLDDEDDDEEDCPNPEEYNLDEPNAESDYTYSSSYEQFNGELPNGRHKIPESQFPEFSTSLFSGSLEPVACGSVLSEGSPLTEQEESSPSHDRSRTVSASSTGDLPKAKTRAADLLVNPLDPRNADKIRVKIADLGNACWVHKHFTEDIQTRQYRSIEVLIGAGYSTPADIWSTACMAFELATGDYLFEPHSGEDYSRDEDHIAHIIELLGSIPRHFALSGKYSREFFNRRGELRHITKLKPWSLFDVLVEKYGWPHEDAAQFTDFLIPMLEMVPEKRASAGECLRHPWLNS

Row | Compound | inhibition [1] | inhibition [2] | inhibition [3] | inhibition [4] | inhibition [5] | inhibition [6] | inhibition [7] | inhibition [8] | inhibition [9] | inhibition (PC-3)
1 | CC(C)(NC(=O)c1ccc2nc(N[C@H]3CC[C@H](O)CC3)c3nccn3c2c1)c1ccccc1 | < 35% | < 35% | < 35% | < 35% | < 35% | < 35% | < 35% | < 35% | < 35% | < 35%
2 | C[C@H](NC(=O)c1ccc2nc(N[C@H]3CC[C@H](O)CC3)c3nccn3c2c1)c1ccccc1 | < 35% | < 35% | < 35% | < 35% | < 35% | < 35% | < 35% | < 35% | < 35% | < 35%
3 | O=C(NC1(c2ccc(F)cc2)CC1)c1ccc2nc(N[C@H]3CC[C@H](O)CC3)c3nccn3c2c1 | < 35% | 44.3% | < 35% | < 35% | < 35% | < 35% | < 35% | < 35% | < 35% | < 35%
4 | C[C@@H](NC(=O)c1ccc2nc(N[C@H]3CC[C@H](O)CC3)c3nccn3c2c1)c1ccccc1 | < 35% | 42.6% | < 35% | < 35% | < 35% | < 35% | < 35% | < 35% | < 35% | < 35%
5 | CCC[C@@H](NC(=O)c1ccc2nc(N[C@H]3CC[C@H](O)CC3)c3nccn3c2c1)c1ccccc1 | < 35% | < 35% | < 35% | < 35% | < 35% | < 35% | < 35% | < 35% | < 35% | < 35%

Further lines, with some results ahead:

Row | inhibition [1] | inhibition [2] | inhibition [3] | inhibition [4] | inhibition [5] | inhibition [6] | inhibition [7] | inhibition [8] | inhibition [9] | Compound | inhibition (PC-3)
6 | < 35% | < 35% | < 35% | < 35% | < 35% | < 35% | < 35% | < 35% | < 35% | O=C(NC1(Cc2ccc(F)cc2)CC1)c1ccc2nc(N[C@H]3CC[C@H](O)CC3)c3nccn3c2c1 | < 35%
7 | < 35% | < 35% | < 35% | < 35% | < 35% | < 35% | < 35% | < 35% | < 35% | O=C(N[C@H](CO)c1ccccc1)c1ccc2nc(N[C@H]3CC[C@H](O)CC3)c3nccn3c2c1 | < 35%
8 | < 35% | < 35% | < 35% | < 35% | < 35% | < 35% | < 35% | < 35% | < 35% | CC[C@@H](NC(=O)c1ccc2nc(N[C@H]3CC[C@H](O)CC3)c3nccn3c2c1)c1ccccc1 | < 35%
9 | < 35% | < 35% | < 35% | < 35% | < 35% | < 35% | < 35% | < 35% | < 35% | O=C(NC1(c2ccccc2)CCC1)c1ccc2nc(N[C@H]3CC[C@H](O)CC3)c3nccn3c2c1 | < 35%
10 | < 35% | 81.2% | < 35% | < 35% | < 35% | < 35% | 37.1% | < 35% | < 35% | O=C(O)c1ccc2nc(N[C@H]3CC[C@H](O)CC3)c3nccn3c2c1 | < 35%
11 | < 35% | 91.3% | < 35% | < 35% | < 35% | < 35% | < 35% | < 35% | < 35% | NC(=O)c1ccc2nc(N[C@H]3CC[C@H](O)CC3)c3nccn3c2c1 | 37%
12 | < 35% | < 35% | < 35% | < 35% | < 35% | < 35% | < 35% | < 35% | < 35% | O=C(NC1(c2ccccc2)CC1)c1ccc2nc(N[C@H]3CC[C@H](O)CC3)c3nccn3c2c1 | < 35%

— ChEMBL document CHEMBL2417377, “Hit-to-lead optimization and kinase selectivity of imidazo[1,2-a]quinoxalin-4-amine derived JNK1 inhibitors” (Bioorg Med Chem Lett, 2013)
